# Laboratory results reported in patent publication US3975384A, “2,4,5,6-Tetrasubstituted pyrimidines and salts thereof” (Boehringer Ingelheim GmbH, priority 1973, dated 1976).
# pIC50: −log10 of the molar value. Read-outs that look alike come from different tables or passages of the source.
# Assays:
# [1] = system: platelet aggregation in human blood plasma; assay: Born and Cross test, ADP-induced platelet aggregation; assay type: cell-based; settings: 10 min, human platelet-rich plasma, 10 minutes at 37°C, read-out: Born and Cross test (ADP) EC50 (concentration which causes a 50% alteration of the "optical density")
# Method: 1. Determination of inhibiting effect upon platelet aggregation in human blood plasma by the method of Born and cross, J. Physiol. 170, 397 (1964):
# The platelet aggregation was measured in the platelet-rich plasma of normal, healthy human donors. The rate of decline of the optical density of the platelet suspension was measured and recorded photometrically after the addition of adenosine diphosphate (ADP). From the angle of inclination of the density curve, the speed of aggregation was concluded. The optical density was taken as the point on the curve where most light was transmitted. The smallest possible doses of ADP were chosen, but enough to result in irreversible aggregation. The plasma was incubated at 37°C for 10 minutes with varying quantities of the test compound before ADP was added.
# [2] = Acute toxicity (LD50) in mice; settings: mouse, in vivo, observation time 14 days
# Method: The acute toxicity of the test compounds was determined in mice (observation time: 14 days). The LD50 was calculated from the percentage of animals which died within the observation time after administration, i.v. or p.o., of varying doses [see J. Pharmacol. exper. Therap. 96, 99 (1949)].
# [3] = system: platelet adhesiveness in human blood; assay: Morris retention test, inhibition of platelet adhesiveness; assay type: cell-based; settings: 10 min; for inhibition at 10 µM: 10 μ mols/liter, 10 minutes at 37°C, glass beads
# Method: 2. Determination of inhibiting effect on platelet adhesiveness in human blood by the so-called retention test according to Morris (E. Deutsch, E. Gerlach and K. Moser: 1. Internationales Symposium uber Stoffwechsel und Membranpermeabilitat von Erythrozyten and Thrombozyten, Vienna, 1969; Georg Thieme Verlag, Stuttgart, Germany).
# To determine the inhibiting action of the test compound on thrombocyte aggregation, 1 ml of human blood was pipetted into each of a plurality of small test tubes, and the test compound was added to give a final concentration of 5 × 10^-^5 mol/liter or 1 × 10^^-5 mol/liter. The tubes were incubated for 10 minutes at 37°C. 1 gm of glass beads (for gas-chromatography) was added to half of the tubes. Then, the stoppered tubes were attached to a disc mounted for rotation about a horizontal axis and rotated for 1 minute. By this means good contact was obtained between the glass beads and the blood. The tubes were then left standing at room temperature for another hour, after which time a satisfactory sedimentation of erythrocytes had taken place. 0.01 ml of the supernatant plasma was removed, diluted 1:8000 with celloscope solution, and the platelet count was read in a celloscope. The percentage reduction of the stickiness due to the presence of the test compound, compared to the tubes containing no glass beads, was measured (average values of 4- 6 tests).
# [4] = Hygroscopicity remark on acid addition salt; assay type: physicochemical; settings: printed beside m.p. of the salt
Compound,pIC50 [1],"LD50 at 336 h ([2]; iv, read-out: LD50 i.v.) [mg/kg]","LD50 at 336 h ([2]; po, read-out: LD50 p.o.) [mg/kg]",inhibition at 10 µM [3] [%],hygroscopicity [4],inhibition at 30 µM ([3]; Concentration: 30μ mols/liter (footnote +)) [%]
"Cc1nc(N2CCNCC2)nc(N2CC[S+]([O-])CC2)c1[N+](=O)[O-] [A, 6-methyl-5-nitro-2-piperazino-4-(1-oxido-thiomorpholino)-pyrimidine]",7.92,160,600,92,,
"Cc1nc(N2CCNCC2)nc(N2CCSCC2)c1[N+](=O)[O-] [B, 6-methyl-5-nitro-2-piperazino-4-thiomorpholino-pyrimidine]",5.52,70,620,66,,
"N#Cc1nc(N2CCNCC2)nc(N2CC[S+]([O-])CC2)c1Cl [C, 5-chloro-6-cyano-2-piperazino-4-(1-oxido-thiomorpholino)-pyrimidine]",6.89,101,836,92,,
"CCOc1nc(N2CCNCC2)nc(N2CC[S+]([O-])CC2)c1[N+](=O)[O-] [D, 6-ethoxy-5-nitro-4-(1-oxido-thiomorpholino)-2-piperazino-pyrimidine]",7.60,150,600,100,,
"CC(C)Oc1nc(N2CCNCC2)nc(N2CC[S+]([O-])CC2)c1[N+](=O)[O-] [E, 5-nitro-4-(1-oxido-thiomorpholino)-2-piperazino-6-isopropoxy-pyrimidine]",6.70,170,500,69,,
"CCC(C)Oc1nc(N2CCNCC2)nc(N2CCS(=O)(=O)CC2)c1[N+](=O)[O-] (stereo not shown) [F, 6-sec.Butoxy-4-(1,1-dioxido-thiomorpholino)-5-nitro-2-piperazino-pyrimidine]",6.07,150,1500,61,,
"CCOc1nc(N2CCNCC2)nc(N2CC[S+]([O-])CC2)c1[N+](=O)[O-] [Fumarate, 6-Ethoxy-5-nitro-4-(1-oxido-thiomorpholino)-2-piperazino-pyrimidine]",,,,,hydroscopic,
"CSc1nc(N2CCN(C=O)CC2)nc(N2CC[S+]([O-])CC2)c1[N+](=O)[O-] [G, 6-methylthio-5-nitro-4-(1-oxido-thiomorpholino)-2-(N'-formyl-piperazino)-pyrimidine]",4.30,,> 1000,2,,
"CC(=O)CC(=O)N1CCN(c2nc(C)c([N+](=O)[O-])c(N3CC[S+]([O-])CC3)n2)CC1 [H, 6-methyl-5-nitro-4-(1-oxido-thiomorpholino)-2-(N'-acetoacetyl-piperazino)-pyrimidine]",4.00,,> 1000,,,11
